Reference: BindingDB's records for doi:10.1021/jm970560h (Warner-Lambert, 1998)

Biological target: Sterol O-acyltransferase 1 (ACAT) (Mus musculus) (UniProt Q61263)
Assay: Inhibition of Acyl coenzyme A:cholesterol acyltransferase by cellular MAI2 assay

Sterol O-acyltransferase 1 (ACAT) (Mus musculus), sequence (Q61263 whole entry, looked up): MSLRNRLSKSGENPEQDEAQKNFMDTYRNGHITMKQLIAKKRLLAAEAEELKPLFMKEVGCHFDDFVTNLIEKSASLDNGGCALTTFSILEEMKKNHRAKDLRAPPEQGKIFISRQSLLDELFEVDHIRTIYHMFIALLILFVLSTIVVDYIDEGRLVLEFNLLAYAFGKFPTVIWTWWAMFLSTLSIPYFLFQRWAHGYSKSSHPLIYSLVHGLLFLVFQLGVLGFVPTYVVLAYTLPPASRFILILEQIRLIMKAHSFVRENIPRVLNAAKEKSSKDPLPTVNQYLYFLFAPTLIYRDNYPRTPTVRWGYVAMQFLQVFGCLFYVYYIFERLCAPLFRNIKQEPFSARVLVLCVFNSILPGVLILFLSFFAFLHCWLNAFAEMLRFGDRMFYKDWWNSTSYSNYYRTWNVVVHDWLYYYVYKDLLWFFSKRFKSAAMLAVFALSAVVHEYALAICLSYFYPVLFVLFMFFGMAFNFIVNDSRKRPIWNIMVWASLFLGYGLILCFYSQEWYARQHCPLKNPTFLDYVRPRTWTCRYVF

## CCCCCCCCCCCCOC(=O)C(C(=O)Nc1c(C(C)C)cccc1C(C)C)c1ccccc1 (stereo unspecified) [N-(2,6-Diisopropyl-phenyl)-2-phenyl-malonamic acid dodecyl ester]
  IC50: 20 nM
